Laboratory results taken from US10369185B2, “Methods and compositions for enhancement of ability to concentrate” (KYOWA HAKKO BIO CO., LTD., priority 2014, dated 2019).
Entries after “also recorded” stand apart in the source; their conditions may differ. Peptide text beside a SMILES is read from it.

Key:
Assay type in all cases: in vivo, human
male runners [1] = experiment: Serial subtraction test (modified Serial Sevens Test); conditions: between trials
Protocol: The testing protocol is depicted in FIG. 1. Data collection occurred on four separate occasions. Each session required participants to perform a 60-min run at 75% of their previously measured VO2max. Following this run, all participants performed a run at 90% of their VO2max until volitional exhaustion. All participants performed their first trial (DHY) without any rehydration. During this session the total weight lost during the trial was determined. The fluid loss that occurred during this session was then used to determine the participant's swear rate (L·hr^−1). To continue in the study, participant's sweat rate was or exceeded 1.3 L·hr^−1. During the next three trails participants were provided 250 ml of fluid every 15 minutes in equal amounts. During one of the trials participants consumed only a flavored sports drink (ELECT only), while during the other trials participants consumed the alanine-glutamine supplement (Sustamine™) mixed in the same flavored sports drink at either a low (LD: 300 mg per 500 ml) or high (HD: 1 g per 500 ml) dose.
A modified version of the original Serial Sevens Test was utilized to analyze cognitive function. […] The number of correct answers and the average time per correct answer was recorded.

[2] = Blood measures during the 60-min run (plasma lactate, glucose, osmolality, potassium, sodium, glutamine); conditions: at 45-min; HD compared with LD
Protocol: During each experimental session baseline (BL) blood samples were obtained at preexercise. Additional blood samples were also obtained following 30 min, 45 min and 60 min during the exercise session. All blood samples were obtained using a 20-gauge Teflon cannula placed in a superficial forearm vein using a 3-way stopcock with a male luer lock adapter. The cannula was maintained patent using an isotonic saline solution. BL blood samples were drawn following a 15-min equilibration period prior to exercise. Blood samples were obtained at the same time of day during each session.
Blood samples were drawn into plain or EDTA treated tubes. Blood samples will be analyzed in triplicate for hematocrit via microcapillary technique and hemoglobin. […]
Plasma glucose and lactate concentrations were determined in duplicate with an automated analyzer (Analox GM7 enzymatic metabolite analyzer, Analox Instruments USA, Lunenburg, Mass.). Plasma glutamine was analyzed with the use of a spectrophotometer and a commercially available enzymatic kit (Abnova, Jhongli City, Taiwan) per manufacturer's instructions. Serum immunoreactivity values were determined using a BioTekEon spectrophotometer (BioTek, Winooski, Vt., USA). Plasma sodium and potassium concentrations were assessed via ion-selective electrodes (EasyElectrolyte, Medica, Bedford, Mass.). […]

male runners [3] = experiment: Multiple object tracking (CAVE, NeuroTracker); conditions: for NeuroTracker Δ, group mean: Post-Pre
Protocol: The testing protocol is depicted in FIG. 1. Data collection occurred on four separate occasions. Each session required participants to perform a 60-min run at 75% of their previously measured VO2max. Following this run, all participants performed a run at 90% of their VO2max until volitional exhaustion. All participants performed their first trial (DHY) without any rehydration. During this session the total weight lost during the trial was determined. The fluid loss that occurred during this session was then used to determine the participant's swear rate (L·hr^−1). To continue in the study, participant's sweat rate was or exceeded 1.3 L·hr^−1. During the next three trails participants were provided 250 ml of fluid every 15 minutes in equal amounts. During one of the trials participants consumed only a flavored sports drink (ELECT only), while during the other trials participants consumed the alanine-glutamine supplement (Sustamine™) mixed in the same flavored sports drink at either a low (LD: 300 mg per 500 ml) or high (HD: 1 g per 500 ml) dose. Visual optical tracking was assessed using a Cave Automatic Virtual Environment (CAVE) system. The CAVE is a 2.4 m×2.4 m×2.4 m room that includes a frontal canvas projection wall which served as surfaces for image projection. Four high-resolution projectors were synchronized, and the image was projected onto the front screen. Participants tracked 4 of 8 objects that moved in a three-dimensional plane. Velocity of movement began at a slow tracking speed and progressed on the performance of the individual participant. Each participant performed 10 trials. During each trial participants wore 3-dimensional glasses. The velocity of movement that was most successful was recorded. Additionally, to make inferences on true effects of the different trials on reaction performance, an analysis based on the magnitude of differences, calculated from 90% confidence intervals, as previously described by Batterham and Hopkins (2005), was used in this study. Differences in Post-Pre performance (Δresponse) between trials were analyzed via a published spreadsheet (Hopkins 2007), with the smallest non-trivial change set at 20% of the grand standard deviation (Batterham and Hopkins 2005). All data are expressed as a mean effect±SD, with percent chances of a beneficial, trivial or negative outcome. Qualitative inferences, based on quantitative chances were assessed as: <1% almost certainly not, 1-5% very unlikely, 5-25% unlikely, 25-75% possibly, 75-95% likely, 95-99% very likely and >99% almost certainly (Hopkins 2002).

C[C@H](N)C(=O)N[C@@H](CCC(N)=O)C(=O)O [L-Alanyl-L-Glutamine] (H-Ala-Gln-OH)
serial subtraction tests and time per successful answer (male runners [1]): No significant differences
plasma glutamine concentrations [2]: significant difference
NeuroTracker Δ, Interpretation (male runners [3]; Dehydration vs High Dose): Unclear
NeuroTracker Δ, Mean Difference (male runners [3]; Dehydration vs High Dose): −0.06
NeuroTracker Δ, Percent Negative (male runners [3]; Dehydration vs High Dose): 37.20%
NeuroTracker Δ, Percent Positive (male runners [3]; Dehydration vs High Dose): 12.32%
NeuroTracker Δ, Percent Trivial (male runners [3]; Dehydration vs High Dose): 50.47%
NeuroTracker Δ, Interpretation (male runners [3]; Dehydration vs Low Dose): Unclear
NeuroTracker Δ, Mean Difference (male runners [3]; Dehydration vs Low Dose): 0.008
NeuroTracker Δ, Percent Negative (male runners [3]; Dehydration vs Low Dose): 21.19%
NeuroTracker Δ, Percent Positive (male runners [3]; Dehydration vs Low Dose): 24.48%
NeuroTracker Δ, Percent Trivial (male runners [3]; Dehydration vs Low Dose): 54.33%
NeuroTracker Δ, Interpretation (male runners [3]; Gatorade vs High Dose): likely maintain or improve their scores more so than when they consumed the electrolyte drink only; also recorded: Likely
NeuroTracker Δ, Mean Difference (male runners [3]; Gatorade vs High Dose): −0.23
NeuroTracker Δ, Percent Negative (male runners [3]; Gatorade vs High Dose): 85.10%
NeuroTracker Δ, Percent Positive (male runners [3]; Gatorade vs High Dose): 0.44%
NeuroTracker Δ, Percent Trivial (male runners [3]; Gatorade vs High Dose): 14.46%
NeuroTracker Δ, group mean (male runners [3]; High Dose (1 g per 500 ml)): 0.201
NeuroTracker Δ, group mean (male runners [3]; Low Dose (300 mg per 500 ml)): 0.132
NeuroTracker Δ, Interpretation (male runners [3]; Low Dose vs Gatorade): Possibly
NeuroTracker Δ, Mean Difference (male runners [3]; Low Dose vs Gatorade): 0.17
NeuroTracker Δ, Percent Negative (male runners [3]; Low Dose vs Gatorade): 4.42%
NeuroTracker Δ, Percent Positive (male runners [3]; Low Dose vs Gatorade): 64.40%
NeuroTracker Δ, Percent Trivial (male runners [3]; Low Dose vs Gatorade): 31.18%
NeuroTracker Δ, Interpretation (male runners [3]; Low Dose vs High Dose): Possibly
NeuroTracker Δ, Mean Difference (male runners [3]; Low Dose vs High Dose): 0.069
NeuroTracker Δ, Percent Negative (male runners [3]; Low Dose vs High Dose): 26.72%
NeuroTracker Δ, Percent Positive (male runners [3]; Low Dose vs High Dose): 0.45%
NeuroTracker Δ, Percent Trivial (male runners [3]; Low Dose vs High Dose): 72.83%
changes in multiple object tracking (male runners [3]; between trials): No significant differences were noted between trials
